Values of other authors in patent US20230000835A1, “LYSINE-SPECIFIC HISTONE DEMETHYLASE INHIBITORS FOR THE TREATMENT OF MYELOPROLIFERATIVE NEOPLASMS” (Imago Biosciences, Inc., priority 2019, published 2023).

Tested on: primary myelofibrosis patients
Conditions: 50 to 100 mg/day in combination with prednisone; cited from earlier work

## O=C1CCC(N2C(=O)c3ccccc3C2=O)C(=O)N1 (centres unmarked) [Thalidomide]
  primary myelofibrosis patients with improved anemia and thrombocytopenia: approximately 60%
  primary myelofibrosis patients with reduced spleen size: approximately 20%
